Earlier results, collected in patent publication US20210401736A1, “SEMI-SOLID CHEWABLE GEL CANNABINOID COMPOSITIONS AND METHODS OF MAKING AND USING THEREOF” (Seattle Gummy Company, priority 2019, published 2021).

Assays:
[1] = 5 mg of CBN versus 10 mg dose of diazepam, according to studies
[2] = test system: alpha2-adrenergic receptor
[3] = molecular target: T1, 5-HT1A receptor (Homo sapiens, UniProt P08908)
T1 sequence (P08908 1-422): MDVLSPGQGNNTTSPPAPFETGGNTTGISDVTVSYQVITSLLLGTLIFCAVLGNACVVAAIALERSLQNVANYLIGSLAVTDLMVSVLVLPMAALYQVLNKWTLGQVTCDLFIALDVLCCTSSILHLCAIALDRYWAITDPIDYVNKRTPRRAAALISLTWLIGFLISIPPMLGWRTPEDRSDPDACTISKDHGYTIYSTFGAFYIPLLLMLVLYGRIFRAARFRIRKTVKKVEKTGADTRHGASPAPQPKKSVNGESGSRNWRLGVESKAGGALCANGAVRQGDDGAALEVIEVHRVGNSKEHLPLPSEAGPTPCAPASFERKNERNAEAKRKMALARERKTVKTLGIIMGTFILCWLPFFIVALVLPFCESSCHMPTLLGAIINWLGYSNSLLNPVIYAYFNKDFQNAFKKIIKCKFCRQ

[4] = molecular target: CB1 receptor (Homo sapiens, UniProt P21554)
Sequence of CB1 receptor (P21554 whole entry): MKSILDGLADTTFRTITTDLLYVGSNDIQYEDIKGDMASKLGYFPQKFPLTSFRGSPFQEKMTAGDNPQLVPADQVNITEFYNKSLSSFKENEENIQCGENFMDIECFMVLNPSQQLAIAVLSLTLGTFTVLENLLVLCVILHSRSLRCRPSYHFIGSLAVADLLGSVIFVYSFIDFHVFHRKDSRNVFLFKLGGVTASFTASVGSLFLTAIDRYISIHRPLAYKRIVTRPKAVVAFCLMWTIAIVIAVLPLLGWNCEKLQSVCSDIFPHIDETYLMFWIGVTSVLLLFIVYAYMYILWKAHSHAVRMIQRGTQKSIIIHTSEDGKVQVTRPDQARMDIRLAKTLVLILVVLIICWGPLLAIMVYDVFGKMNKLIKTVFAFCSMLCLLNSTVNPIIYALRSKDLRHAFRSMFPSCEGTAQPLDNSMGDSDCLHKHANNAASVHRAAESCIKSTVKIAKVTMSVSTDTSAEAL

SMILES: CCCCCc1cc(O)c2c(c1)OC(C)(C)c1ccc(C)cc1-2 [CBN, cannabinol]
- sedative effect [1]: as effective as 10 mg dose of diazepam

SMILES: C=C(C)[C@@H]1CCC(C)=C[C@H]1c1c(O)cc(CCCCC)cc1O [CBD, cannabidiol, reference compound]
- solubility in polyols such as glycerol: low solubility
- solubility in water: water insoluble

SMILES: CCCCCc1cc(O)c(C/C=C(\C)CCC=C(C)C)c(O)c1 [CBG, cannabigerol]
- affinity, alpha2-adrenergic receptor agonist [2]: high affinity
- affinity, 5-HT1A receptor antagonist [3]: moderate affinity
- affinity, CB1 receptor antagonist [4]: low affinity
- solubility in polyols such as glycerol: low solubility
- solubility in water: water insoluble
